The values that follow come from patent US8362000B2, “Azetidinyl diamides as monoacylglycerol lipase inhibitors” (Janssen Pharmaceutica NV, priority 2009, dated 2013).

The target in one test is T1, mutant MGL (Homo sapiens, UniProt Q99685, L169S/L176S).
T1 sequence (Q99685 1-303 L169S/L176S): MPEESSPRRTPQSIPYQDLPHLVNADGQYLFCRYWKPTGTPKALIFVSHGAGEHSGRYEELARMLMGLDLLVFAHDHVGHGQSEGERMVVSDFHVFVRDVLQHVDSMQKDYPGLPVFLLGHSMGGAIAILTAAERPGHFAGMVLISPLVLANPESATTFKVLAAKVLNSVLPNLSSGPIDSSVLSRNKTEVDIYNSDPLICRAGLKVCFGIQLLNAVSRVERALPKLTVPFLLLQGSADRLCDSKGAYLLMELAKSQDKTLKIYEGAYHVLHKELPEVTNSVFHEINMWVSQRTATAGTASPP
In words: MGL ThermoFluor assay - mutant. The class given is binding. As to conditions: ThermoFluor concentration-response, read-out: MGL mutant ThermoFluor Kd.
As for `O=C(c1ccccc1)N1CCN(C2CN(C(=O)c3ccc(Oc4cccc(Cl)c4)cc3)C2)CC1` [Cpd 426], the dissociation constant Kd is 250 nM.

In the case of `O=C(c1ccc(Cc2ccccc2)cc1)N1CC(N2CCN(C(=O)c3nccs3)C(c3ccccc3)C2)C1` (centres unmarked) [Cpd 1464, 4-{1-[(4-Benzylphenyl)carbonyl]azetidin-3-yl}-2-phenyl-1-(1,3-thiazol-2-ylcarbonyl)piperazine], the Kd was more than 31200 nM.

For `O=C(c1ccccc1)N1CCN(C2CN(C(=O)c3ccc(=O)n(Cc4ccccc4)c3)C2)CC1` [Cpd 565, 1-Benzyl-5-({3-[4-(phenylcarbonyl)piperazin-1-yl]azetidin-1-yl}carbonyl)pyridin-2(1H)-one], the Kd is more than 31200 nM.

Take `O=C(c1ccccc1)N1CCN(C2CN(C(=O)c3ccc(CNc4cccc(Cl)c4)cc3)C2)CC1` [Cpd 549]: the Kd was 60 nM.

As to `Cc1nc(C(=O)N2CCN(C3CN(C(=O)c4ccc(-c5ccccc5)cc4)C3)CC2)cs1` [Cpd 10, 1-[1-(Biphenyl-4-ylcarbonyl)azetidin-3-yl]-4-[(2-methyl-1,3-thiazol-4-yl)carbonyl]piperazine], the Kd came out at 556 nM.

In the case of `O=C(c1ccc(SCc2cccc(Cl)c2Cl)cc1)N1CC(N2CCN(C(=O)c3nccs3)CC2)C1` [Cpd 413, 1-[1-({4-[(2,3-Dichlorobenzyl)sulfanyl]phenyl}carbonyl)azetidin-3-yl]-4-(1,3-thiazol-2-ylcarbonyl)piperazine], the Kd was found to be 2 nM.

`CC1CN(C2CN(C(=O)c3cccc(Oc4ccccc4)c3)C2)CCN1C(=O)c1nccs1` (centres unmarked) [Cpd 113]: the Kd is 1110 nM.

Regarding `O=C(/C=C/c1ccc2ccccc2c1)N1CC(N2CCN(C(=O)c3ccccc3)CC2)C1` [Cpd 105, 1-{1-[(2E)-3-Naphthalen-2-ylprop-2-enoyl]azetidin-3-yl}-4-(phenylcarbonyl)piperazine], the Kd is 5000 nM.

Regarding `O=C(c1ccc(-c2ccccc2)cc1)N1CC(N2CCN(C(=O)c3ccccc3)C(CO)C2)C1` (centres unmarked) [Cpd 460, {4-[1-(Biphenyl-4-ylcarbonyl)azetidin-3-yl]-1-(phenylcarbonyl)piperazin-2-yl}methanol], the Kd was 9100 nM.

Regarding `O=C(c1cscn1)N1CCN(C2CN(C(=O)C3CCC(c4ccc(Cl)cc4)CC3)C2)CC1` (centres unmarked) [Cpd 643], the dissociation constant (Kd) came out at 1000 nM.

For `O=C(c1ccccc1)N1CCN(C2CN(C(=O)c3ccc4c(ccn4-c4ncc(F)cn4)c3)C2)CC1` [Cpd 598, 1-(5-Fluoropyrimidin-2-yl)-5-({3-[4-(phenylcarbonyl)piperazin-1-yl]azetidin-1-yl}carbonyl)-1H-indole], the Kd was 249 nM.

With `O=C(c1ccccc1)N1CCN(C2CN(C(=O)c3ccc(C4CCCCC4)cc3)C2)CC1` [Cpd 1, 1-{1-[(4-Cyclohexylphenyl)carbonyl]azetidin-3-yl}-4-(phenylcarbonyl)-piperazine], the Kd is 5.9 nM.

For `O=C(c1ccccc1)N1CCN(C2CN(C(=O)c3ccc(OCc4ccccc4)cc3)C2)CC1` [Cpd 35, 1-(1-{[4-(Benzyloxy)phenyl]carbonyl}azetidin-3-yl)-4-(phenylcarbonyl)piperazine], the Kd was 83.3 nM.

As for `O=C(c1ccccc1)N1CCN(C2CN(C(=O)c3cccnc3Oc3ccccc3)C2)CC1` [Cpd 110, 1-{1-[(2-Phenoxypyridin-3-yl)carbonyl]azetidin-3-yl}-4-(phenylcarbonyl)piperazine], the Kd is 5000 nM.

On to `O=C(c1ccc(-c2ccccc2)cc1)N1CCN(C2CN(C(=O)c3cscn3)C2)C(c2ccccc2)C1` (centres unmarked) [Cpd 1402, 4-(Biphenyl-4-ylcarbonyl)-2-phenyl-1-[1-(1,3-thiazol-4-ylcarbonyl)azetidin-3-yl]piperazine], for which the Kd stood at 2000 nM.

Consider `O=C(c1ccccc1)N1CCN(C2CN(C(=O)c3ccc(-c4ccccc4Cl)cc3)C2)CC1` [Cpd 36, 1-{1-[(2′-Chlorobiphenyl-4-yl)carbonyl]azetidin-3-yl}-4-(phenylcarbonyl)piperazine], for which the Kd is 37 nM.

As to `Cc1nc(COc2ccc(Cl)cc2)sc1C(=O)N1CC(N2CCN(C(=O)c3ccccc3)CC2)C1` [Cpd 558, 1-[1-({2-[(4-Chlorophenoxy)methyl]-4-methyl-1,3-thiazol-5-yl}carbonyl)azetidin-3-yl]-4-(phenylcarbonyl)piperazine], the Kd was determined as 333 nM.

As for `O=C(c1ccccc1)N1CCN(C2CN(C(=O)c3ccc(O[C@H]4CCN(C(=O)N5CCCC5)C4)c(I)c3)C2)CC1` [Cpd 450, 1-{1-[(3-Iodo-4-{[(3S)-1-(pyrrolidin-1-ylcarbonyl)pyrrolidin-3-yl]oxy}phenyl)carbonyl]azetidin-3-yl}-4-(phenylcarbonyl)piperazine], the Kd is 50 nM.

With `O=C(c1ccccc1)N1CCN(C2CN(C(=O)c3ccc(NCc4ccc(Cl)c(Cl)c4)cc3)C2)CC1` [Cpd 493, N-(3,4-Dichlorobenzyl)-4-({3-[4-(phenylcarbonyl)piperazin-1-yl]azetidin-1-yl}carbonyl)aniline], the Kd came out at 25 nM.

For the molecule `O=C(c1cscn1)N1CCN(C2CN(C(=O)C3CCC(C(F)(F)F)CC3)C2)CC1` (centres unmarked) [Cpd 644], the Kd is more than 76700 nM.

Take `O=C(c1cc(F)cc(Br)c1)N1CC(N2CCN(C(=O)c3cscn3)CC2)C1` [Cpd 926]: the Kd came out at 9440 nM.

On to `O=C(c1ccc(Cc2ccccc2)cc1)N1CC(N2CCN(C(=O)c3ccccc3)C(CO)C2)C1` (centres unmarked) [Cpd 459, [4-{1-[(4-Benzylphenyl)carbonyl]azetidin-3-yl}-1-(phenylcarbonyl)piperazin-2-yl]methanol], for which the Kd came to 3330 nM.

Regarding `O=C(c1ccccc1)N1CCN(C2CN(C(=O)c3cccc(-n4cccc4)c3)C2)CC1` [Cpd 627, 1-(Phenylcarbonyl)-4-(1-{[3-(1H-pyrrol-1-yl)phenyl]carbonyl}azetidin-3-yl)piperazine], the Kd was 10000 nM.

As for `O=C(c1ccccc1)N1CCN(C2CN(C(=O)c3ccc(N4CCCCC4)cc3)C2)CC1` [Cpd 53, 1-(Phenylcarbonyl)-4-{1-[(4-piperidin-1-ylphenyl)carbonyl]azetidin-3-yl}piperazine], the Kd was 100 nM.

On to `CC(=O)Oc1ccc(C(=O)N2CC(N3CCN(C(=O)c4nccs4)CC3)C2)cc1` [Cpd 471, 4-({3-[4-(1,3-Thiazol-2-ylcarbonyl)piperazin-1-yl]azetidin-1-yl}carbonyl)phenyl acetate], for which the Kd is 2500 nM.

As for `O=C(c1ccccc1)N1CCN(C2CN(C(=O)c3ccc(-n4cnc5ccccc54)cc3)C2)CC1` [Cpd 48, 1-[4-({3-[4-(Phenylcarbonyl)piperazin-1-yl]azetidin-1-yl}carbonyl)phenyl]-1H-benzimidazole], the Kd turned out to be 1000 nM.

For `O=C(c1ccc(O[C@H]2CCN(C(=O)N3CCCC3)C2)c(I)c1)N1CC(N2CCN(C(=O)c3nccs3)CC2)C1` [Cpd 452], the dissociation constant Kd is 200 nM.

Take `O=C(c1ccc(SCc2ccc(Cl)cc2)cc1)N1CC(N2CCN(C(=O)c3nccs3)CC2)C1` [Cpd 415]: the Kd stood at 8 nM.

In the case of `O=C(c1ccccc1)N1CCN(C2CN(C(=O)c3sc4cc(F)ccc4c3C3CC3)C2)CC1` [Cpd 528], the Kd was determined as 49 nM.

The test is the same for the next values; noted with them: ThermoFluor thermal stability binding assay, read-out: MGL mutant ThermoFluor Kd.
As for `CS(=O)(=O)N1CCCc2cc(C(=O)N3CC(N4CCN(C(=O)c5ccccc5)CC4)C3)ccc21` [Cpd 363, 1-(Methylsulfonyl)-6-({3-[4-(phenylcarbonyl)piperazin-1-yl]azetidin-1-yl}carbonyl)-1,2,3,4-tetrahydroquinoline], the dissociation constant (Kd) worked out at 6760 nM.

For `O=C(c1nccs1)N1CCN(C2CN(C(=O)c3cccc4nc(Cc5ccc(Cl)cc5)[nH]c34)C2)CC1` [Cpd 991], the equilibrium dissociation constant (Kd) was 200 nM.

Take `O=C(c1ccccc1)N1CCN(C2CN(C(=O)c3ccc(OCc4cccc(OC(F)(F)F)c4)cc3)C2)CC1` [Cpd 393]: the Kd was 90.9 nM.

On to `COc1cc(C(=O)N2CC(N3CCN(C(=O)c4ccccc4)CC3)C2)ccc1-c1cccc(C(F)(F)F)c1` [Cpd 249, 1-(1-{[2-Methoxy-3′-(trifluoromethyl)biphenyl-4-yl]carbonyl}azetidin-3-yl)-4-(phenylcarbonyl)piperazine], for which the Kd was found to be 10 nM.

On to `Cc1cc(-c2cccc(C(F)(F)F)c2)ccc1C(=O)N1CC(N2CCN(C(=O)c3ccccc3)CC2)C1` [Cpd 238, 1-(1-{[3-Methyl-3′-(trifluoromethyl)biphenyl-4-yl]carbonyl}azetidin-3-yl)-4-(phenylcarbonyl)piperazine], for which the equilibrium dissociation constant (Kd) was found to be 33.3 nM.

Take `O=C(c1ccc2c(c1)CCCN2c1ccc(C(F)(F)F)cc1)N1CC(N2CCN(C(=O)c3nccs3)CC2)C1` [Cpd 373, 6-({3-[4-(1,3-Thiazol-2-ylcarbonyl)piperazin-1-yl]azetidin-1-yl}carbonyl)-1-[4-(trifluoromethyl)phenyl]-1,2,3,4-tetrahydroquinoline]: the Kd stood at 5.5 nM.

`Cc1oc(-c2ccccc2)cc1C(=O)N1CC(N2CCN(C(=O)c3cscn3)CC2)C1` [Cpd 1396]: the Kd was found to be 317 nM.

As for `CC(=O)N1c2ccc(-c3cccc(C(F)(F)F)c3)cc2CCC1C(=O)N1CC(N2CCN(C(=O)c3nccs3)CC2)C1` (centres unmarked) [Cpd 917], the Kd was 5000 nM.

In the case of `O=C(c1ccc(OCc2cncc(Cl)c2)cc1)N1CC(N2CCN(C(=O)c3cscn3)CC2)C1` [Cpd 981], the Kd was determined as 937 nM.

Take `O=C(c1nccs1)N1CCN(C2CN(C(=O)c3ccc(-c4cccc(C(F)(F)F)c4)cc3F)C2)CC1` [Cpd 244, 1-(1-{[3-Fluoro-3′-(trifluoromethyl)biphenyl-4-yl]carbonyl}azetidin-3-yl)-4-(1,3-thiazol-2-ylcarbonyl)piperazine]: the dissociation constant Kd was found to be 2 nM.

Regarding `O=C(c1nccs1)N1CCN(C2CN(C(=O)c3cccc4nc(Cc5ccccc5F)[nH]c34)C2)CC1` [Cpd 989], the Kd amounted to 1250 nM.

As to `O=C(/C=C/c1ccccc1Cl)N1CC(N2CCN(C(=O)c3nccs3)CC2)C1` [Cpd 295, 1-{1-[(2E)-3-(2-Chlorophenyl)prop-2-enoyl]azetidin-3-yl}-4-(1,3-thiazol-2-ylcarbonyl)piperazine], the Kd was 833 nM.
